Measured values published in the NIST ThermoML archive (doi:10.1021/je049776w).
± gives the expanded uncertainty stated by the source.

Test: xn = mol fraction of the nth substance listed
Conditions: 101.3 kPa, Liquid

Cc1ccc(C)cc1 [1,4-dimethylbenzene] + CN1CCCC1=O
Conditions | mass density [kg/m3] | viscosity [mPa·s]
303.15 K, x1 = 0.0947 | 1005.71 ± 2.4 | 1.359 ± 0.045
303.15 K, x1 = 0.1893 | 988.37 ± 2.1 | 1.239 ± 0.039
303.15 K, x1 = 0.2858 | 971.07 ± 1.9 | 1.129 ± 0.034
303.15 K, x1 = 0.3838 | 953.82 ± 1.6 | 1.02 ± 0.03
303.15 K, x1 = 0.483 | 936.56 ± 1.4 | 0.9203 ± 0.026
303.15 K, x1 = 0.5836 | 919.47 ± 1.1 | 0.8327 ± 0.023
303.15 K, x1 = 0.6854 | 902.73 ± 0.96 | 0.7753 ± 0.021
303.15 K, x1 = 0.7888 | 885.85 ± 0.82 | 0.7001 ± 0.019
303.15 K, x1 = 0.8937 | 869.04 ± 0.73 | 0.6291 ± 0.017
303.15 K, x1 = 1 | 852.35 ± 0.72 | 0.5715 ± 0.015
313.15 K, x1 = 0.0947 | 996.79 ± 2.4 | 1.173 ± 0.039
313.15 K, x1 = 0.1893 | 979.45 ± 2.1 | 1.07 ± 0.034
313.15 K, x1 = 0.2858 | 962.14 ± 1.9 | 0.9754 ± 0.03
313.15 K, x1 = 0.3838 | 944.9 ± 1.6 | 0.8894 ± 0.026
313.15 K, x1 = 0.483 | 927.68 ± 1.4 | 0.807 ± 0.023
313.15 K, x1 = 0.5836 | 910.56 ± 1.1 | 0.7296 ± 0.021
313.15 K, x1 = 0.6854 | 893.86 ± 0.97 | 0.6862 ± 0.019
313.15 K, x1 = 0.7888 | 877.02 ± 0.83 | 0.619 ± 0.017
313.15 K, x1 = 0.8937 | 860.27 ± 0.75 | 0.5579 ± 0.015
313.15 K, x1 = 1 | 843.64 ± 0.74 | 0.508 ± 0.014
323.15 K, x1 = 0.0947 | 987.88 ± 2.4 | 1.023 ± 0.034
323.15 K, x1 = 0.1893 | 970.53 ± 2.1 | 0.9373 ± 0.03
323.15 K, x1 = 0.2858 | 953.21 ± 1.8 | 0.8571 ± 0.027
323.15 K, x1 = 0.3838 | 935.97 ± 1.6 | 0.7795 ± 0.024
323.15 K, x1 = 0.483 | 918.77 ± 1.4 | 0.7084 ± 0.021
323.15 K, x1 = 0.5836 | 901.68 ± 1.2 | 0.6521 ± 0.019
323.15 K, x1 = 0.6854 | 884.99 ± 0.98 | 0.6084 ± 0.017
323.15 K, x1 = 0.7888 | 868.16 ± 0.85 | 0.5517 ± 0.015
323.15 K, x1 = 0.8937 | 851.46 ± 0.78 | 0.4998 ± 0.014
323.15 K, x1 = 1 | 834.9 ± 0.77 | 0.4599 ± 0.013
333.15 K, x1 = 0.0947 | 978.93 ± 2.4 | 0.9019 ± 0.031
333.15 K, x1 = 0.1893 | 961.55 ± 2.1 | 0.8316 ± 0.027
333.15 K, x1 = 0.2858 | 944.23 ± 1.8 | 0.7602 ± 0.024
333.15 K, x1 = 0.3838 | 926.99 ± 1.6 | 0.694 ± 0.021
333.15 K, x1 = 0.483 | 909.8 ± 1.4 | 0.6321 ± 0.019
333.15 K, x1 = 0.5836 | 892.71 ± 1.2 | 0.5828 ± 0.017
333.15 K, x1 = 0.6854 | 876.03 ± 0.99 | 0.5437 ± 0.016
333.15 K, x1 = 0.7888 | 859.21 ± 0.87 | 0.4947 ± 0.014
333.15 K, x1 = 0.8937 | 842.56 ± 0.8 | 0.4504 ± 0.013
333.15 K, x1 = 1 | 826.09 ± 0.8 | 0.4298 ± 0.013
343.15 K, x1 = 0.0947 | 969.95 ± 2.3 | 0.8009 ± 0.027
343.15 K, x1 = 0.1893 | 952.56 ± 2.1 | 0.7371 ± 0.024
343.15 K, x1 = 0.2858 | 935.23 ± 1.8 | 0.681 ± 0.022
343.15 K, x1 = 0.3838 | 917.98 ± 1.6 | 0.6209 ± 0.019
343.15 K, x1 = 0.483 | 900.82 ± 1.4 | 0.5686 ± 0.017
343.15 K, x1 = 0.5836 | 883.72 ± 1.2 | 0.5173 ± 0.015
343.15 K, x1 = 0.6854 | 867.04 ± 1 | 0.4921 ± 0.015
343.15 K, x1 = 0.7888 | 850.22 ± 0.89 | 0.4476 ± 0.013
343.15 K, x1 = 0.8937 | 833.61 ± 0.83 | 0.4081 ± 0.013
343.15 K, x1 = 1 | 817.17 ± 0.83 | 0.3783 ± 0.012
353.15 K, x1 = 0.0947 | 960.94 ± 2.3 | 0.7219 ± 0.025
353.15 K, x1 = 0.1893 | 943.54 ± 2.1 | 0.6637 ± 0.022
353.15 K, x1 = 0.2858 | 926.19 ± 1.8 | 0.6119 ± 0.02
353.15 K, x1 = 0.3838 | 908.93 ± 1.6 | 0.561 ± 0.018
353.15 K, x1 = 0.483 | 891.78 ± 1.4 | 0.5127 ± 0.016
353.15 K, x1 = 0.5836 | 874.66 ± 1.2 | 0.4761 ± 0.015
353.15 K, x1 = 0.6854 | 857.97 ± 1 | 0.4466 ± 0.014
353.15 K, x1 = 0.7888 | 841.16 ± 0.91 | 0.4072 ± 0.013
353.15 K, x1 = 0.8937 | 824.56 ± 0.85 | 0.3726 ± 0.012
353.15 K, x1 = 1 | 808.22 ± 0.85 | 0.3382 ± 0.011
